The experiment addresses Thymidine kinase (Herpes simplex virus type 1). In words: Binding affinity towards HSV-1 thymidine kinase was determined.

The structures appear in SMILES notation. pKi: −log10 of the molar value.

As a reminder, the pKi is −log10 of the Ki, conventionally taken in molar units. Read a high pKi as a small Ki. Molecule `Nc1nc2c(ncn2CCCCO)c(=O)[nH]1` [2-amino-9-(4-hydroxybutyl)-6,9-dihydro-3H-purin-6-one] had a pKi of 5.69.

The values are drawn from BindingDB's records for doi:10.1021/jm00001a010 (University of Massachusetts Medical School, 1995).
